Measurements: ChEMBL document CHEMBL4219178, “Synthesis of (aminoalkyl)cycleanine analogues: cytotoxicity, cellular uptake, and apoptosis induction in ovarian cancer cells” (Bioorg Med Chem Lett, 2018)
pIC50: −log10 of the molar value. Calls of active or inactive are those of the source. No cut-off for these calls is given here.

What was measured:
OVCAR-8 [1] = assay: Antiproliferative activity against human OVCAR8 cells after 72 hrs by SRB assay; assay type: functional, cell-based; conditions: OVCAR-8, 72 h
OVCAR-8 [2] = assay: Induction of apoptosis in human OVCAR8 cells assessed as nucleus condensation at 10 to 20 uM incubated for 24 to 48 hrs by phase contrast light microscopy; assay type: functional, cell-based
[3] = Cytotoxicity against human ovarian epithelial cells assessed as reduction in cell viability after 72 hrs by SRB assay; assay type: cell-based
OVCAR-8 [4] = assay: Cell cycle arrest in human OVCAR8 cells assessed as accumulation at subG1 phase at 20 uM after 48 hrs by propidium iodide based flow cytometry; assay type: functional
OVCAR-8 [5] = assay: Induction of apoptosis in human OVCAR8 cells assessed as late apoptotic cells at 20 uM after 48 hrs by Annexin V-FITC/propidium iodide based flow cytometry (reference value: 5%); assay type: functional
[6] = Selectivity index, ratio of IC50 for human ovarian epithelial cells to IC50 for human IGROV1 cells; assay type: toxicity; conditions: human ovarian epithelial cells versus IGROV1 cells, read-out: Ratio IC50
IGROV-1 [7] = assay: Antiproliferative activity against human IGROV1 cells after 72 hrs by SRB assay; assay type: functional, cell-based; conditions: IGROV-1, 72 h
IGROV-1 [8] = assay: Induction of apoptosis in human IGROV1 cells assessed as induction of caspase 3/7 activity at 20 uM incubated for 48 hrs by caspase-Glo 3/7 reagent based luminescence assay; assay type: functional, cell-based
OVCAR-8 [9] = assay: Induction of apoptosis in human OVCAR8 cells assessed as induction of caspase 3/7 activity at 20 uM incubated for 48 hrs by caspase-Glo 3/7 reagent based luminescence assay; assay type: functional, cell-based
OVCAR-8 [10] = assay: Cell cycle arrest in human OVCAR8 cells assessed as decrease in G0/G1 phase at 20 uM after 48 hrs by propidium iodide based flow cytometry; assay type: functional
[11] = Selectivity index, ratio of IC50 for human ovarian epithelial cells to IC50 for human A2780 cells; assay type: toxicity; conditions: human ovarian epithelial cells versus A2780 cells, read-out: Ratio IC50
[12] = Selectivity index, ratio of IC50 for human ovarian epithelial cells to IC50 for human OVCAR8 cells; assay type: toxicity; conditions: human ovarian epithelial cells versus OVCAR8 cells, read-out: Ratio IC50
OVCAR-8 [13] = assay: Induction of apoptosis in human OVCAR8 cells assessed as cell detachment at 10 to 20 uM incubated for 24 to 48 hrs by phase contrast light microscopy; assay type: functional, cell-based
OVCAR-8 [14] = assay: Induction of apoptosis in human OVCAR8 cells assessed as cell shrinkage at 10 to 20 uM incubated for 24 to 48 hrs by phase contrast light microscopy; assay type: functional, cell-based
OVCAR-8 [15] = assay: Induction of apoptosis in human OVCAR8 cells assessed as induction of PARP-1 cleavage at 20 uM after 48 hrs by Western blot; assay type: functional, cell-based
A2780 [16] = assay: Antiproliferative activity against human A2780 cells after 72 hrs by SRB assay; assay type: functional, cell-based; conditions: A2780, 72 h
OVCAR-8 [17] = assay: Induction of apoptosis in human OVCAR8 cells assessed as early apoptotic cells at 20 uM after 48 hrs by Annexin V-FITC/propidium iodide based flow cytometry (reference value: 4%); assay type: functional
OVCAR-8 [18] = assay: Induction of apoptosis in human OVCAR8 cells assessed as viable cells at 20 uM after 48 hrs by Annexin V-FITC/propidium iodide based flow cytometry (reference value: 84%); assay type: functional; conditions: OVCAR-8, 48 h, read-out: Activity
A2780 [19] = assay: Induction of apoptosis in human A2780 cells assessed as induction of caspase 3/7 activity at 20 uM incubated for 48 hrs by caspase-Glo 3/7 reagent based luminescence assay; assay type: functional, cell-based
[20] = Drug uptake in human OVCAR8 cells at 20 uM after 48 hrs by Alexa 488 azide dye-based confocal fluorescence microscopy; assay type: ADME, cell-based; conditions: ovcar-8, 48 h

| Structure (SMILES) | pIC50 (OVCAR-8 [1]) | Activity (OVCAR-8 [2]) | pIC50 [3] | Activity (OVCAR-8 [4]) | Activity (OVCAR-8 [5]) [%] | selectivity ratio [6] | pIC50 (IGROV-1 [7]) | Activity (IGROV-1 [8]) | Activity (OVCAR-8 [9]) | Activity (OVCAR-8 [10]) | selectivity ratio [11] | selectivity ratio [12] | Activity (OVCAR-8 [13]) | Activity (OVCAR-8 [14]) | Activity (OVCAR-8 [15]) | pIC50 (A2780 [16]) | Activity (OVCAR-8 [17]) [%] | viability at 20 µM (OVCAR-8 [18]) [%] | Activity (A2780 [19]) | Drug uptake [20] |
| --- | --- | --- | --- | --- | --- | --- | --- | --- | --- | --- | --- | --- | --- | --- | --- | --- | --- | --- | --- | --- |
| COc1cc2c3c(c1OC)Oc1ccc(cc1)C[C@@H]1c4c(c(CN(C)C)c(OC)c(OC)c4Oc4ccc(cc4)C[C@H]3N(C)CC2)CCN1C | 5.28 | Active | 5.00 | Active | 25 | 2 | 5.36 | Active | Active | Active | 3 | 2 | Active | Active | Active | 5.44 | 13 | 51 | Active |  |
| C#CCNCc1c2c3c(c(OC)c1OC)Oc1ccc(cc1)C[C@@H]1c4c(cc(OC)c(OC)c4Oc4ccc(cc4)C[C@H]3N(C)CC2)CCN1C | 5.25 | Active | 4.49 | Active | 38 | 5 | 5.21 | Active | Active | Active | 5 | 6 | Active | Active | Active | 5.20 | 11 | 50 | Active | Active |
| COc1cc2c3c(c1OC)Oc1ccc(cc1)C[C@@H]1c4c(cc(OC)c(OC)c4Oc4ccc(cc4)C[C@H]3N(C)CC2)CCN1C | 5.00 |  | 4.46 |  |  | 3 | 4.85 |  |  |  | 5 | 3 |  |  |  | 5.12 |  |  |  | Not Active |
